Experimental findings from ChEMBL document CHEMBL4321839, “Structure-activity relationships (SAR) of triazine derivatives: Promising antimicrobial agents” (Eur J Med Chem, 2020) are described below.

The structures appear in SMILES notation. ≈ marks a conversion by molar mass, not a printed value.

The test system of series [1] is Candida albicans. Kind of series: Antifungal activity against Candida albicans NCIM-3102 at 18 to 24 hrs by CLSI based alamar blue assay. It counts as functional. A general note: The colour change of resazurin is a common sign of viable cells or microbes.
For series [2], the system named is Nakaseomyces glabratus. Kind of series: Antifungal activity against Candida glabrata NCIM-3266 at 18 to 24 hrs by CLSI based alamar blue assay. In kind it is functional.
Series [3] deals with Cryptococcus neoformans. Kind of series: Antifungal activity against Cryptococcus neoformans NCIM-3542 at 72 hrs by CLSI based alamar blue assay. The settings on record: NCIM-3542, 72 h. It counts as functional.
Series [4] relates to Aspergillus niger. Kind of series: Antifungal activity against Aspergillus niger NCIM-620 at 72 hrs by CLSI based alamar blue assay. The settings on record: NCIM-620, 72 h. In kind it is functional.
Series [5] has as its system Escherichia coli. Kind of series: Antimicrobial activity against Escherichia coli ATCC 25922 assessed as reduction in microbial growth after 24 to 48 hrs by microdilution susceptibility test. It counts as functional. (In broth dilution the organism is exposed to a series of concentrations in liquid medium.)
Series [6] has as its system Staphylococcus aureus. Nature of the series: Antimicrobial activity against Staphylococcus aureus […] assessed as reduction in microbial growth after 24 to 48 hrs by microdilution susceptibility test. In kind it is functional.
A short description of series [7]: Cytotoxicity against African green monkey Vero cells incubated for 72 hrs by MTT assay. It counts as cell-based. The note with it: chlorocebus sabaeus. In general terms: Formazan colour is commonly taken as a measure of viable cells.
In series [8] the test system is Escherichia coli. Kind of series: Antimicrobial activity against multi drug-resistant Escherichia coli assessed as reduction in microbial growth after 24 to 48 hrs by microdilution susceptibility test. In kind it is functional.
The test system of series [9] is Staphylococcus aureus. Nature of the series: Antimicrobial activity against methicillin-resistant Staphylococcus aureus assessed as reduction in microbial growth after 24 to 48 hrs by microdilution susceptibility test. It counts as functional.
The subject of series [10] is Staphylococcus aureus. Nature of the series: Antimicrobial activity against methicillin-resistant Staphylococcus aureus clinical isolate MRSA1 assessed as reduction in microbial growth by two-fold serial dilution method. In kind it is functional.
For series [11], the system named is Staphylococcus aureus. Nature of the series: Antimicrobial activity methicillin-resistant against Staphylococcus aureus. In kind it is functional.
For series [12], the system named is Escherichia coli. Kind of series: Antimicrobial activity multi drug-resistant against Escherichia coli. It counts as functional.
Series [13] concerns Bacillus cereus. Nature of the series: Antimicrobial activity against Bacillus cereus NCIM-2156 assessed as zone of inhibition at 5 ug after 24 hrs by disk diffusion method. In kind it is functional. The settings on record: NCIM-2156, 24 h, read-out: IZ.
Series [14] concerns Pseudomonas aeruginosa. Kind of series: Antimicrobial activity against Pseudomonas aeruginosa NCIM-2036 assessed as zone of inhibition at 5 ug after 24 hrs by disk diffusion method. In kind it is functional. The note with it: NCIM-2036, 24 h, read-out: IZ.
For series [15], the system named is Staphylococcus aureus. Nature of the series: Antimicrobial activity against Staphylococcus aureus NCIM-2079 assessed as zone of inhibition at 5 ug after 24 hrs by disk diffusion method. In kind it is functional. The settings on record: NCIM-2079, 24 h, read-out: IZ.
Series [16] has as its system Bacillus subtilis. Kind of series: Antimicrobial activity against Bacillus subtilis NCIM-2063 assessed as zone of inhibition at 5 ug after 24 hrs by disk diffusion method. In kind it is functional. The note with it: NCIM-2063, 24 h, read-out: IZ.
Series [17] has as its system Lacticaseibacillus casei. Nature of the series: Antibacterial activity against Lactobacillus casei NCIM-2651 assessed as reduction in microbial growth incubated for 24 hrs by broth dilution method. It counts as functional. The note with it: NCIM-2651, 24 h.
Series [18] concerns Klebsiella pneumoniae. Nature of the series: Antimicrobial activity against multi drug-resistant Klebsiella pneumoniae assessed as reduction in microbial growth by two-fold serial dilution method. It counts as functional.
For series [19], the system named is Pseudomonas aeruginosa. Kind of series: Antimicrobial activity against Pseudomonas aeruginosa NCIM-2036 after 24 hrs by CLSI based broth dilution method. It counts as functional. The note with it: NCIM-2036, 24 h.
In series [20] the test system is Proteus vulgaris. Nature of the series: Antimicrobial activity against Proteus vulgaris NCIM-2027 assessed as reduction in microbial growth after 24 hrs by CLSI based broth dilution method. In kind it is functional. The settings on record: NCIM-2027, 24 h.

One may read the MIC as the least concentration at which growth counts as inhibited. Consider `O=[N+]([O-])c1ccc(-c2csc(Nc3nc(N4CCOCC4)nc(N4CCOCC4)n3)n2)cc1`, for which the minimal inhibitory concentration (MIC) in [1], in series [2], in series [3] and in series [4] was 0.63 to 5 µg/mL (≈ 1.34 to 10.6 µM) each time.

Consider `O=C(CNc1nc(NCC(=O)N/N=C/c2ccc(Cl)cc2)nc(Nc2ccc(Nc3nc(NCC(=O)N/N=C/c4ccc(Cl)cc4)nc(NCC(=O)N/N=C/c4ccc(Cl)cc4)n3)cc2)n1)N/N=C/c1ccc(Cl)cc1`, for which the MIC in [5] and in [6] was 12.5 to 25 µg/mL each time.

In general, CC50 refers to the concentration that lowers cell viability or growth by half. Turning to `O=C(O)c1ccc(Nc2nc(Cl)nc(NCc3ccccc3)n2)cc1`, the MIC in series [5] turned out to be 50 µg/mL; in series [6] it was 12.5 µg/mL; in series [8], 100 µg/mL; in series [9], 25 µg/mL. In [7], this compound yielded a CC50 at 72 h of 225 µg/mL (≈ 632 µM).

In the case of `O=C(CNc1nc(NCC(=O)N/N=C/c2ccc(Cl)cc2)nc(Nc2ccc(-c3ccc(Nc4nc(NCC(=O)N/N=C/c5ccc(Cl)cc5)nc(NCC(=O)N/N=C/c5ccc(Cl)cc5)n4)cc3)cc2)n1)N/N=C/c1ccc(Cl)cc1`, the MIC in [5] and in [6] was 12.5 to 25 µg/mL throughout.

In the case of `O=C(N/N=C/c1ccc2c(c1)OCO2)c1ccc(Nc2nc(N3CCCCC3)nc(N3CCCCC3)n2)cc1`, in [10], the MIC came to 25 µg/mL. In series [7], this compound showed a CC50 at 72 h of 250 µg/mL (≈ 473 µM).

Consider `O=C(O)c1ccc(Nc2nc(Cl)nc(N3CCCCC3)n2)cc1`, for which the MIC is 25 µg/mL in series [5], 25 µg/mL in series [6], 25 µg/mL in series [8] and 100 µg/mL in series [9]. In series [7], this compound displayed a CC50 at 72 h of 125 µg/mL (≈ 374 µM).

As to `Cc1ccc(C2=NN=C3C(F)CC4=C(C(C5CC5)C=C(C(=O)O)C4=O)N3C2)cc1` (stereo not drawn), the MIC in series [11] was determined as 0.5 µg/mL (≈ 1.27 µM); in series [12], 0.25 µg/mL (≈ 0.635 µM).

As to `S=C(Nc1ccnc2cc(Cl)ccc12)N1CCN(c2nc(Nc3ccc(Br)cc3)nc(Nc3ccc(Br)cc3)n2)CC1`, the zone of inhibition at 5 µg/disc in series [13] fell in the range of 9 to 17 mm; in [14], 9 to 17 mm; in series [15], 16 to 17 mm; in [16], 16 to 17 mm.

With `Nc1nc(Nc2nc(-c3ccc(Cl)cc3)cs2)nc(Sc2ccccc2)n1`, the MIC in [17] is 3.12 µg/mL.

Regarding `O=C(O)C1=CC(C2CC2)C2=C(CC(F)C3=NN=C(c4ccc([N+](=O)[O-])cc4)CN32)C1=O` (stereo not drawn), the MIC is 0.25 to 8 µg/mL (≈ 0.589 to 18.9 µM) in series [11] and 0.25 µg/mL (≈ 0.589 µM) in [12].

`c1ccc(-c2csc(Nc3nc(N4CCOCC4)nc(N4CCOCC4)n3)n2)cc1`: the MIC in series [1], in series [2], in [3] and in [4] was 0.63 to 5 µg/mL (≈ 1.48 to 11.8 µM) throughout.

For the compound `O=C(N/N=C/c1ccccc1)c1ccc(Nc2nc(N3CCCCC3)nc(N3CCCCC3)n2)cc1`, the MIC in series [18] amounted to 50 µg/mL. The same compound showed a CC50 at 72 h in [7] of 250 µg/mL (≈ 516 µM).

`CC(C)Nc1nc(Nc2nc(-c3ccc(Cl)cc3)cs2)nc(NC(C)C)n1` came in with an MIC in series [1] of 5 µg/mL (≈ 12.4 µM).

Consider `Nc1nc(Nc2ccccc2)nc(Nc2nc(-c3ccc(Cl)cc3)cs2)n1`, for which the MIC in [17] was found to be 3.12 µg/mL.

Regarding `Clc1ccc(-c2csc(Nc3nc(N4CCOCC4)nc(N4CCOCC4)n3)n2)cc1`, the MIC in series [1], in series [2], in [3] and in [4] was 0.63 to 5 µg/mL (≈ 1.37 to 10.9 µM) each time.

As for `CC1=NN(c2ccccc2)C(C)C1Nc1nnc(Sc2nc(Nc3ccc(F)cc3)nc(Nc3ccc(F)cc3)n2)s1` (stereo not drawn), 6.25 µg/mL (≈ 10.4 µM) was the least that counted as inhibitory in [19] (MIC).

Turning to `O=C1CSC(=O)N1c1nc(Nc2cccc(Cl)c2)nc(Nc2cccc(Cl)c2)n1`, the MIC in [20] amounted to 3.91 µg/mL.

Take `O=C(O)C1=CC(C2CC2)C2=C(CC(F)C3=NN=C(c4cccc(Cl)c4)CN32)C1=O` (stereo not drawn): the MIC in [11] and in [12] was 8 µg/mL (≈ 19.3 µM) in each case.

For the compound `Nc1nc(N)nc(Nc2ccc(C(=O)N/N=C/c3ccco3)cc2)n1`, the MIC in series [10] was found to be 3.12 µg/mL; in [18], 12.5 µg/mL. For the same compound, the CC50 at 72 h in [7] is 125 µg/mL (≈ 369 µM).
